We go through one compound from patent US10124035B2, “DISC-1 pathway activators in the control of neurogenesis” (Massachusetts Institute of Technology, priority 2008, dated 2018).

The structures appear in SMILES notation. Entries after “also recorded” stand apart in the source; their conditions may differ.

The conditions of data set [1]: previously reported (Selenica et al. 2007); cited from earlier work.
In data set [2] the test system is TCF reporter in 293T cells. The data set is described as follows: TCF reporter activity in DISC1 knockdown 293T cells with Wnt3a conditional medium. Format: cell-based. The conditions noted are these: 16 hours. The method, then: Primary neural stem cells from E14 brains were infected with control or DISC1 shRNA lentiviruses. 48 hours after to transduction, cells were treated with vehicle or SB-216763 (5 μM) for 16 hours and then pulsed with 10 μM BrdU for 2 hours. Shown is percentage of GFP and BrdU double positive cells to total GFP positive cells (n=3, p<0.05). b. […] 1.5 μg of vector or WT-DISC1 was cotransfected with 0.5 μg control or DISC1 shRNA-2, 0.1 μg TCF reporter, and 10 ng pRL-TK vector into 293T cells. 48 hours after transfection, Wnt3a conditional medium with vehicle, SB-216763, or AR-A104418 was added for another 16 hours.
• Mice. Swiss Webster pregnant female mice were purchased from Taconic (Hudson, N.Y.). • Cell Culture. AHPs were kindly provided by Dr. Gage (Lie, D. C. et al. Wnt signaling to regulates adult hippocampal neurogenesis. Nature 437, 1370-5 (2005)) and cultured under conditions described previously (Palmer, T. D., Takahashi, J. & Gage, F. H. The adult rat hippocampus contains primordial neural stem cells. Mol Cell Neurosci 8, 389-404 (1997)). Primary neural progenitors were isolated from E14 mouse embryos and cultured as described previously (Sanada, K. & Tsai, L. H. G protein betagamma subunits and AGS3 control spindle orientation and asymmetric cell fate of cerebral cortical progenitors. Cell 122, 119-31 (2005)). N2a and 293T cells were cultured in DMEM medium containing 10% FBS, L-glutamine, and penicillin/streptomycin. Wnt3a expressing L cells and untransfected L cells were obtained from ATCC (Manassas, Va.). Wnt3a conditional medium was produced according to the ATCC protocol. To induce AHP differentiation, FGF2 was removed from the culture medium and 1 μM retinoic acid/1% FBS was added to the medium for 4 days. • Reagents. Recombinant Wnt3a protein was obtained from Chemicon (Rosemont, Ill.). FGF2 was obtained from PeproTech (Rocky Hill, N.J.). Recombinant GST-GSK3β was obtained from Active Motif (Carlsbad, Calif.). Recombinant GST-β-catenin and GST-axin were obtained from Millipore (Billerica, Mass.). […]

With `Cn1cc(C2=C(c3ccc(Cl)cc3Cl)C(=O)NC2=O)c2ccccc21` [SB-216763], the “crossing of the blood-brain barrier” value in data set [1] is “cross the blood-brain barrier”. For the same compound, the “TCF reporter activity in DISC1 knockdown cells” value in data set [2] is “rescued TCF activity in DISC1 knockdown cells to control levels; also recorded: rescues the TCF activation defect caused by DISC1 knockdown”.
